Experimental data reported in patent US20100099629A1, “OPHTHALMOLOGICAL COMPOSITION” (Nihon Tenganyaku Kenkyusho Co., LTD., priority 2002, published 2010).
Marks after values point to notes of the source that are not given here.

Assays:
[1] = system: rabbit corneal wound model; test: Corneal wound healing promotion action 1 (in vivo), wound of approximately 6 mm; conditions: 5 μM eye drop, 30 μl instillation
Protocol: Using a male Japanese white rabbit, a wound of approximately 6 mm in diameter was produced in the cornea by inducing corneal epithelial abrasion in accordance with the method of Cintron et al. (Ophthalmic Res., 11, pp. 90-96 (1979)). The wound area was measured using the fluorescein-stained area as an index. The effects of the test compound on corneal wound healing were examined.
The eye drops containing the respective concentrations of the test compound were instilled (30 μl at a time) at 0, 3, 6, 9, 12, 18, 24, 27, 30, 33, 36, 42, and 48 hours after inducing corneal epithelial abrasion. In measuring the wound area, fluorescein staining was carried out and a photograph of the cornea was measured. The fluorescein-stained area of the photographed cornea was computed using an image analysis processing system.
(§1) In Tables 1 and 2, the respective values indicate the mean value±standard deviation (n=6). Statistical analysis was carried out using Dunnett's multiple comparison with respect to PBS with the area of the corneal wound portion immediately after (0 hours after) corneal epithelial abrasion being set to 100% (*p<0.05, **p<0.01; vs. control).

[2] = system: rabbit corneal wound model; test: Corneal wound healing promotion action 2 (in vivo), wound of approximately 8 mm; conditions: 0.3% eye drop, 25 μl instillation
Protocol: Using the same method as (2) above, corneal epithelial abrasion was induced in a Japanese white rabbit to produce a wound of approximately 8 mm in diameter in the cornea. The wound area was measured using the fluorescein-stained area as an index to examine the effects on corneal wound healing.
The eye drops containing the respective concentrations of the test compound were instilled (25 μl at a time) at 0, 6, 12, 18, 24, 30, 36, 42, 48, and 54 hours after induction corneal epithelial abrasion. In measuring the wound area, fluorescein staining was carried out and a photograph of the cornea was measured. The fluorescein-stained area of the photographed cornea was computed using an image analysis processing system.
as §1, with “Tables 3” for “Tables 1”, “and 4,” for “and 2,”, “to physiological saline” for “to PBS”

| Substance | Healing ratio (%) ([1]; 0 hr (baseline)) | Healing ratio (%) ([1]; 6 hr) | Healing ratio (%) ([1]; 12 hr) | Healing ratio (%) ([1]; 24 hr) | Healing ratio (%) ([1]; 36 hr) | Healing ratio (%) ([1]; 48 hr) | Healing ratio (%) ([2]; 0 hr (baseline)) | Healing ratio (%) ([2]; 12 hr) | Healing ratio (%) ([2]; 18 hr) | Healing ratio (%) ([2]; 24 hr) | Healing ratio (%) ([2]; 30 hr) |
| --- | --- | --- | --- | --- | --- | --- | --- | --- | --- | --- | --- |
| EGF: polypeptide with a molecular weight of 6000, mitosis-promoting growth factor for corneal epithelium | 0 | 14.49 ± 3.42** % | 31.63 ± 1.29** % | 70.78 ± 6.91** % | 96.41 ± 3.97* % | 99.58 ± 1.03 | – | – | – | – | – |
| hyaluronic acid | – | – | – | – | – | – | 0 | 13.98 ± 4.88* % | 28.45 ± 3.37* % | 60.78 ± 8.07** % | 60.78 ± 8.07* % |
